Where two headings read alike, the source gives them in different places.
What was measured:
[1] = target: Wee1 kinase (Homo sapiens, UniProt P30291); experiment: Wee1 Binding Assay (FRET)
Experimental: Wee 1 kinase was determined by using Fluorescence Resonance Energy Transfer (FRET) assay. […] The plate was shaken for 30 seconds, incubated for 60 min at RT, and recorded on fluorescence plate reader.

[2] = tested on: H23 cells; experiment: H23 Cellular Proliferation Assay (CellTiter-Glo); assay type: cell-based; conditions: Homo sapiens, NCI-H23, 96 h, 4 days, read-out: H23 CTG IC50
Experimental: H23 Cellular Proliferation Assay
Cells were treated with compounds diluted in DMSO and a 9 point 5-fold serial dilutions. Plates were placed in 37° C., 5% CO2 for to incubate for 4 days. Before they were developed by adding 100 μL of CellTiter-Glo reagent (Promega) to the assay plate, plates were shaken briefly for 2 mins and allowed to incubate at rt for 10 mins. The plates are read with a M5e plate reader according to CellTiter-Glo protocol. The GraphPad Prism software is used to get IC50 values.

[3] = FRET, Wee1 kinase 2 nM, tracer 178 50 nM, 60 min at RT, read-out: Wee1 enzymatic IC50

Chain of Wee1 kinase (P30291 whole entry): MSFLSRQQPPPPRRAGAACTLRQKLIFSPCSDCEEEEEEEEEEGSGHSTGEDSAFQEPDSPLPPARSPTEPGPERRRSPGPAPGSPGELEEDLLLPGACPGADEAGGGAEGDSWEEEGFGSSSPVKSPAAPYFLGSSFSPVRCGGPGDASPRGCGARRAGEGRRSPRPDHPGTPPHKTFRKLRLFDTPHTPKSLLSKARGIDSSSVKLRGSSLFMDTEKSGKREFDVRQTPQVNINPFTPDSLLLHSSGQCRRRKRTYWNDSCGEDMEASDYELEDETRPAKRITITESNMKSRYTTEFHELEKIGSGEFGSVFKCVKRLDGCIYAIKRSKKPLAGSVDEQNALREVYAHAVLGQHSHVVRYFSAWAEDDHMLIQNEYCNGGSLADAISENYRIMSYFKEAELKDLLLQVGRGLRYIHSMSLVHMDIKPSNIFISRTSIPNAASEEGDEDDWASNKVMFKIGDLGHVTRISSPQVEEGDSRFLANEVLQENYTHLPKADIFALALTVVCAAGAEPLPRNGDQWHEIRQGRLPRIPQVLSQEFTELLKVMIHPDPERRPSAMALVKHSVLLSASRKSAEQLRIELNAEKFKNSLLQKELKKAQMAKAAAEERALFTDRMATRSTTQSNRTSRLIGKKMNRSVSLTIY

Structure (SMILES) | IC50 [1] | IC50 [1, 3] | IC50 [2]
C=CCn1c(=O)c2cnc(Nc3ccc(N4CCN(C)CC4)cc3)nc2n1-c1ccc2c(n1)[C@@H](O)CC2 (single isomer, unassigned) [Example 1A] | < 10 nM |  | > 1000 nM
C=CCn1c(=O)c2cnc(Nc3ccc(N4CCN(C)CC4)cc3)nc2n1-c1ccc2c(n1)[C@H](O)CC2 (single isomer, unassigned) [Example 1B] | < 10 nM |  | 
C=CCn1c(=O)c2cnc(Nc3ccc(N4CCN(C)CC4)cc3)nc2n1-c1ccc2c(n1)[C@@](C)(O)CC2 (single isomer, unassigned) [Example 2A] | < 10 nM |  | > 1000 nM
C=CCn1c(=O)c2cnc(Nc3ccc(N4CCN(C)CC4)cc3)nc2n1-c1ccc2c(n1)[C@](C)(O)CC2 (single isomer, unassigned) [Example 2B] | < 10 nM |  | 100 to 1000 nM
C=CCn1c(=O)c2cnc(Nc3ccc(N4CCN(C)CC4)cc3)nc2n1-c1ccc2c(n1)[C@](O)(C(F)(F)F)CC2 (single isomer, unassigned) [Example 3A] | < 10 nM |  | > 1000 nM
C=CCn1c(=O)c2cnc(Nc3ccc(N4CCN(C)CC4)cc3)nc2n1-c1ccc2c(n1)[C@@](O)(C(F)(F)F)CC2 (single isomer, unassigned) [Example 3B] | < 10 nM |  | 100 to 1000 nM
C=CCn1c(=O)c2cnc(Nc3ccc(N4CCN(C)CC4)cc3)nc2n1-c1ccc2c(n1)[C@@](C)(O)CO2 (single isomer, unassigned) [Example 4A] | < 10 nM |  | > 1000 nM
C=CCn1c(=O)c2cnc(Nc3ccc(N4CCN(C)CC4)cc3)nc2n1-c1ccc2c(n1)[C@](C)(O)CO2 (single isomer, unassigned) [Example 4B] | < 10 nM |  | > 1000 nM
C=CCn1c(=O)c2cnc(Nc3ccc(N4CCN(C)CC4)cc3)nc2n1-c1ccc2c(n1)[C@](O)(CC)CC2 (single isomer, unassigned) [Example 9A] | < 10 nM |  | 100 to 1000 nM
C=CCn1c(=O)c2cnc(Nc3ccc(N4CCN(C)CC4)cc3)nc2n1-c1ccc2c(n1)[C@@](O)(CC)CC2 (single isomer, unassigned) [Example 9B] | < 10 nM |  | 100 to 1000 nM
C=CCn1c(=O)c2cnc(Nc3ccc(N4CCNCC4)cc3)nc2n1-c1ccc2c(n1)C(F)(F)CC2 [Example 7, 2-Allyl-1-(7,7-difluoro-6,7-dihydro-5H-cyclopenta[b]pyridin-2-yl)-6-((4-(piperazin-1-yl)phenyl)amino)-1,2-dihydro-3H-pyrazolo[3,4-d]pyrimidin-3-one] |  | < 10 nM | > 1000 nM
C=CCn1c(=O)c2cnc(Nc3ccc(N4CCN(C)CC4)cc3)nc2n1-c1ccc2c(n1)C(F)(F)CC2 [Example 8, 2-Allyl-1-(7,7-difluoro-6,7-dihydro-5H-cyclopenta[b]pyridin-2-yl)-6-((4-(4-methylpiperazin-1-yl)phenyl)amino)-1,2-dihydro-3H-pyrazolo[3,4-d]pyrimidin-3-one] | < 10 nM |  | 100 to 1000 nM
C=CCn1c(=O)c2cnc(Nc3ccc(N4CCN(C)CC4)cc3)nc2n1-c1cn2c(n1)COCC2 [Example 32, 2-allyl-1-(5,6-dihydro-8H-imidazo[2,1-c][1,4]oxazin-2-yl)-6-((4-(4-methylpiperazin-1-yl)phenyl)amino)-1,2-dihydro-3H-pyrazolo[3,4-d]pyrimidin-3-one] |  | 10 to 100 nM | > 1000 nM
C=CCn1c(=O)c2cnc(Nc3ccc(N4CCN(C)CC4)cc3)nc2n1-c1ccc2c(n1)C(=O)NC2 [Example 34, 2-allyl-6-((4-(4-methylpiperazin-1-yl)phenyl)amino)-1-(7-oxo-6,7-dihydro-5H-pyrrolo[3,4-b]pyridin-2-yl)-1,2-dihydro-3H-pyrazolo[3,4-d]pyrimidin-3-one] |  | < 10 nM | 

Further lines, with some results ahead:

IC50 [1] | IC50 [1, 3] | Structure (SMILES) | IC50 [2]
< 10 nM |  | C=CCn1c(=O)c2cnc(Nc3ccc(N4CCN(C)CC4)c(C)c3)nc2n1-c1ccc2c(n1)[C@@](C)(O)CC2 (single isomer, unassigned) [Example 10A] | 100 to 1000 nM
< 10 nM |  | C=CCn1c(=O)c2cnc(Nc3ccc(N4CCN(C)CC4)c(C)c3)nc2n1-c1ccc2c(n1)[C@](C)(O)CC2 (single isomer, unassigned) [Example 10B] | 100 to 1000 nM
 | < 10 nM | C=CCn1c(=O)c2cnc(Nc3ccc(N4CCN(C)CC4)c(F)c3)nc2n1-c1ccc2c(n1)[C@@](C)(O)CC2 (single isomer, unassigned) [Example 11A] | > 1000 nM
 | < 10 nM | C=CCn1c(=O)c2cnc(Nc3ccc(N4CCN(C)CC4)c(F)c3)nc2n1-c1ccc2c(n1)[C@](C)(O)CC2 (single isomer, unassigned) [Example 11B] | 100 to 1000 nM
< 10 nM |  | C=CCn1c(=O)c2cnc(Nc3ccc(N4CCN(C)CC4)c(C)c3)nc2n1-c1ccc2c(n1)[C@](O)(CC)CC2 (single isomer, unassigned) [Example 12A] | 100 to 1000 nM
< 10 nM |  | C=CCn1c(=O)c2cnc(Nc3ccc(N4CCN(C)CC4)c(C)c3)nc2n1-c1ccc2c(n1)[C@@](O)(CC)CC2 (single isomer, unassigned) [Example 12B] | < 100 nM
< 10 nM |  | C=CCn1c(=O)c2cnc(Nc3ccc(N4CCN(C)CC4)cc3)nc2n1-c1ccc2c(n1)[C@](O)(C(F)F)CC2 (single isomer, unassigned) [Example 15A] | > 1000 nM
< 10 nM |  | C=CCn1c(=O)c2cnc(Nc3ccc(N4CCN(C)CC4)cc3)nc2n1-c1ccc2c(n1)[C@@](O)(C(F)F)CC2 (single isomer, unassigned) [Example 15B] | 100 to 1000 nM
< 10 nM |  | C=CCn1c(=O)c2cnc(Nc3ccc(N4CCN(C)CC4)cc3)nc2n1-c1ccc2c(n1)[C@@](O)(C1CC1)CC2 (single isomer, unassigned) [Example 16B] | 100 to 1000 nM
< 10 nM |  | C=CCn1c(=O)c2cnc(Nc3ccc(N4CCN(C)CC4)cc3)nc2n1-c1ccc2c(c1)[C@@](C)(O)CC2 (single isomer, unassigned) [Example 21A] | > 1000 nM
< 10 nM |  | C=CCn1c(=O)c2cnc(Nc3ccc(N4CCN(C)CC4)cc3)nc2n1-c1ccc2c(c1)[C@](C)(O)CC2 (single isomer, unassigned) [Example 21B] | 100 to 1000 nM
 | 10 to 100 nM | C=CCn1c(=O)c2cnc(Nc3ccc(N4CCN(C)CC4)cc3)nc2n1-c1ccc2c(c1)[C@](O)(CC)CC2 (single isomer, unassigned) [Example 22A] | > 1000 nM
 | < 10 nM | C=CCn1c(=O)c2cnc(Nc3ccc(N4CCN(C)CC4)cc3)nc2n1-c1ccc2c(c1)[C@@](O)(CC)CC2 (single isomer, unassigned) [Example 22B] | 100 to 1000 nM
< 10 nM |  | C=CCn1c(=O)c2cnc(Nc3ccc(N4CCN(C)CC4)cc3)nc2n1-c1ccc2c(n1)[C@@](C)(O)CCC2 (single isomer, unassigned) [Example 25A] | 100 to 1000 nM
< 10 nM |  | C=CCn1c(=O)c2cnc(Nc3ccc(N4CCN(C)CC4)cc3)nc2n1-c1ccc2c(n1)[C@](C)(O)CCC2 (single isomer, unassigned) [Example 25B] | 100 to 1000 nM
< 10 nM |  | C=CCn1c(=O)c2cnc(Nc3ccc(N4CCN(C)CC4)cc3)nc2n1-c1ccc2c(n1)[C@](O)(CC)CCC2 (single isomer, unassigned) [Example 26A] | > 1000 nM
< 10 nM |  | C=CCn1c(=O)c2cnc(Nc3ccc(N4CCN(C)CC4)cc3)nc2n1-c1ccc2c(n1)[C@@](O)(CC)CCC2 (single isomer, unassigned) [Example 26B] | < 100 nM
 | < 10 nM | C=CCn1c(=O)c2cnc(Nc3ccc(N4CCN(C)CC4)c(C)c3)nc2n1-c1ccc2c(n1)[C@@](C)(O)CCC2 (single isomer, unassigned) [Example 27A] | 100 to 1000 nM
 | < 10 nM | C=CCn1c(=O)c2cnc(Nc3ccc(N4CCN(C)CC4)c(C)c3)nc2n1-c1ccc2c(n1)[C@](C)(O)CCC2 (single isomer, unassigned) [Example 27B] | 100 to 1000 nM
< 10 nM |  | C=CCn1c(=O)c2cnc(Nc3ccc4c(c3)CNCC43CC3)nc2n1-c1ccc2c(n1)[C@](O)(C(F)(F)F)CC2 (single isomer, unassigned) [Example 30A] | 100 to 1000 nM
< 10 nM |  | C=CCn1c(=O)c2cnc(Nc3ccc4c(c3)CNCC43CC3)nc2n1-c1ccc2c(n1)[C@@](O)(C(F)(F)F)CC2 (single isomer, unassigned) [Example 30B] | 100 to 1000 nM
 | 10 to 100 nM | C=CCn1c(=O)c2cnc(Nc3ccc(N4CCN(C)CC4)cc3)nc2n1-c1cnc2c(c1)[C@@](C)(O)CO2 (single isomer, unassigned) [Example 35A, 2-allyl-1-(3-hydroxy-3-methyl-2,3-dihydrofuro[2,3-b]pyridin-5-yl)-6-((4-(4-methylpiperazin-1-yl)phenyl)amino)-1,2-dihydro-3H-pyrazolo[3,4-d]pyrimidin-3-one] | > 1000 nM
 | 10 to 100 nM | C=CCn1c(=O)c2cnc(Nc3ccc(N4CCN(C)CC4)cc3)nc2n1-c1cnc2c(c1)[C@](C)(O)CO2 (single isomer, unassigned) [Example 35B] | > 1000 nM
 | 10 to 100 nM | C=CCn1c(=O)c2cnc(Nc3ccc(N4CCN(C)CC4)cc3)nc2n1-c1cn2c(n1)[C@@](C)(O)CC2 (single isomer, unassigned) [Example 36A] | > 1000 nM
 | > 100 nM | C=CCn1c(=O)c2cnc(Nc3ccc(N4CCN(C)CC4)cc3)nc2n1-c1cn2c(n1)[C@](C)(O)CC2 (single isomer, unassigned) [Example 36B] | > 1000 nM

— patent US11261192B2, “Substituted 1,2-dihydro-3H-pyrazolo[3,4-D]pyrimidin-3-ones” (Recurium IP Holdings, LLC, priority 2018, dated 2022)
